Here are results for eleven compounds from patent US12516086B2 (SRI International, priority 2021, dated 2026).

Ends that are not written are not given here.

One data set concerns HT-22 cells. In words: Receptor recycling: MGS_NOE3_V2-4 uptake with chloroquine or cycloheximide. The class given is cell-based, mouse. The note with it: 100 nM MGS_NOE3_V2-4; 100 μM chloroquine or 250 μM cycloheximide; up to 24 h. As to the method:
The cellular receptor for MGS_NOE3_V2-4 is recycled (FIG. 22). HT-22 cells were incubated with culture medium containing 100 nM MGS_NOE3_V2-4 in the presence of 100 μM chloroquine or 250 μM cycloheximide for the indicated times. The cellular uptake was analyzed by flow cytometry. […] New protein synthesis is not required for continued uptake of MGS_NOE3_V2-4. Endosomal acidification is required for continued uptake of MGS_NOE3_V2-4. MGS_NOE3_V2-4 uptake continues with time.
For experiments to determine if the cellular receptor is recycled, cells were treated with peptide in the presence of 100 μM chloroquine or 250 μM cycloheximide. At the indicated time points, the cells were washed and analyzed as described above.

Data set [1] deals with HT22 cells (mouse hippocampal neuronal cell line). As to the kind of experiment: Peptide uptake by quantitative flow cytometry in HT22 cells. Conditions: for Uptake into HT22 cells versus concentration (in words): 1 h at 37° C. The class given is cell-based. As to the method:
FIG. 26A. […] FIG. 26B. […] FIG. 26C.
(§1) It must be on the tetrameric core to function. […] The number of molecules of peptide internalized per cell was determined by a quantitative flow cytometry assay. […] MGS_NOE3_V1-4 and MGS_NOE3_V2-4 display a 5-6-fold specificity for neurons over astrocytes and 3-fold specificity compared to microglia. […] Incubations were performed for 1 h at 37° C. […] Uptake was determined by flow cytometry assay.
(§2) Peptide concentration and incubation time as well as cell line used is indicated in each figure. […] Cells were removed by trypsinization. Flow cytometry was performed on a BD FACSCelesta, and data were analyzed using FlowJo_v10.8. Cells were gated based on the forward and side scatter to include only viable cells and a minimum of 10,000 events were counted. For absolute peptide uptake per cell, a standard curve was generated using Quantum™ Alexa Fluor 647 microspheres. MFI was determined at 50% at peak height. Molecules internalized per cell were determined by the standard curve relating MESF to MFI and divided by the number dye molecules/MGS conjugate. GraphPad Prism® was used for non-linear regression curve fitting to calculate an EC50.
A general note: Flow cytometry measures light scatter and fluorescence of single cells or particles in a stream.

The nature of data set [2]: human serum (Innovative Research, H6430). Conditions: 37° C., up to 24 hours.
Data set [3] relates to HT22 and GT1/7 neuronal cell lines vs CTX TNA2 astrocytes and HMC3 microglia. In words: Uptake of MGS_NOE3 tetramers across cell lines by quantitative flow cytometry. The class given is cell-based, mouse, rat, human. Conditions: 200 nM, 1 h. The method, then: as §1, §2
Another data set deals with brain cells. As to the kind of experiment: Brain cell association after intrathecal injection, flow cytometry. The class given is in vivo, C57BL/6 mouse. The note with it: Alexa Fluor 647 label, 1 hr circulation, compared to naïve animals. An excerpt:
(A) Gating strategy for total brain cells vs debris. (B) Gating strategy excluding cell doublets. FIG. 24C indicates the fluorescent intensity of MGS_NOE3-V2-4 internalized into brain cells following intrathecal injection compared to naïve animals.
MGS_NOE3-V2-4 was labeled with Alexa Fluor 647 and injected intrathecally in a C57BL/6 mouse. After the peptide circulated for 1 hr, the animal was euthanized, and the brain tissue was harvested. The whole brain was subsequently dissociated using the Miltenyi Biotec gentleMACS Octo Dissociator. The number of MGS_NOE3_V2-4 molecules internalized into brain cells were analyzed by flow cytometry (BD FACSCelesta).
Alternatively, all CNS cells were analyzed as a mixture by dissociating the brain using the Miltenyi Biotec gentleMACS Octo Dissociator. No enrichment for a CNS subpopulation was performed and cells were directly analyzed by flow cytometry. Gating was used to eliminate cell debris and cell doublets.

Another data set concerns HT22 cells. In words: Confocal live cell imaging of internalization into HT22 cells. Conditions: 200 nM, 37° C., Alexa Fluor 647.
For data set [4], the system named is HMC3 cells (human microglia cell line). In words: Peptide uptake by quantitative flow cytometry in HMC3 cells. The class given is cell-based. As to the method: Under both cell states, an average of ˜60,000 molecules of MGS2_V4-2 were internalized. […] All cell lines were incubated with MGS2_V4-2 at 25 nM for 1 hour at 37° C.
Cells were incubated at the indicated concentration of each peptide construct that had been labeled with Alexa Fluor 647. After 1 h incubation at 37° C., uptake was determined by quantitative flow cytometry. […] Thus, uptake is mediated by the MGS not the MTS.
However, binding was rescued by using the tetrameric MGS2_V4-4 as the targeting peptide in this multifunctional chimera (shown in panel A).
as §2
HMC3 cells were activated with interferon-gamma (IFN-γ) (10 ng/ml, 24 h). Resting phenotype was characterized by expression of IBA1, and endotoxin receptor CD14, but negative for the astrocyte marker GFAP. […] In Vivo MTS and MTS-MGS Targeting Experiments

Data set [5] deals with Recombinant human transferrin receptor (Homo sapiens, UniProt P02786). In words: ELISA binding to plate-absorbed transferrin receptor. The note with it: receptor at 1 μg/mL, biotinylated peptide at varying concentrations, 1 h. The method, then: Recombinant human transferrin receptor was absorbed onto high binding ELISA plates at 1 μg/mL. […] Retained MTS peptide was detected using streptavidin-HRP and TMB reagent. The absorbance was measured at 450 nm and is proportional to the amount of MTS peptide captured by transferrin receptor. […] By comparison, MTS3_V1-2 and a scrambled control peptide of MTS2_V1-2 show no binding. The binding affinity of MTS2_V1-2 for transferrin receptor was determined by biolayer interferometry on a OctetRED 96 system. The biotinylated MTS2_V1-2 peptide was captured on streptavidin probe. The kon and koff rate were determined at various concentrations of human or mouse transferrin receptor allowing for determination of the dissociation constant.
(In general: ELISA stands for enzyme-linked immunosorbent assay.)

For data set [6] the following is noted: rat, in vivo.
Method: MTS variants labeled with the near infrared dye Alexa Fluor 750 were injected into the tail vein of Sprague Dawley rats at 1 μg MTS/kg rat body weight. At the indicated time, CSF was isolated via capillary puncture of the cisterna magna. […] To assure the fatty acid is not driving the transport into the CNS, a control peptide scMTS3_V2-2 which contains the MTS3 amino acid composition but with a scrambled sequence was lipidated.
The MTS peptide directly conjugated to Alexa Fluor 750 dye (1 μg/g body weight) is injected via lateral tail vein into a Sprague-Dawley Rat and allowed to circulate for the indicated time (20 min, 1 h 6 h, 24 h). The animal is anesthetized 10 mins prior to the end of the time point and 2 mL 200× Heparinized Saline is injected intraperitoneally. To collect the CSF, a blunt dissection of the back of the neck is performed to expose the clear dura mater covering the cisterna magna. Using a glass micropipette, CSF is aspirated from the cisterna magna at the indicated time point. Following CSF collection, a transcardial perfusion is performed by flushing with 500 mL ice cold 1× PBS containing heparin to remove any blood from the body. The brain and other tissues are isolated. The brain is homogenized using a Dounce homogenizer in lysis buffer (30 mM Tris-HCl, pH 8.0 0.05% Triton X-100) and the soluble fraction collected. […]
The conditions of data set [7]: rat, in vivo. This is another data set of the same source.
Method: Coronal slices are 1 mm and arranged from the front (upper left) to back (lower right).
Coronal slices of 1 mm thickness are prepared using a brain matrix. The slices are imaged on an Odyssey Imager collecting fluorescent signal at 800 nm.
Data set [8] can be described thus: Serum stability (RP-HPLC of Alexa Fluor 647 labeled peptide). The class given is in vitro ADME. The note with it: 37° C., 24 h. The method, then: MGS2_V4-2 labeled with Alex Fluor 647 was incubated in human serum at 37° C. At the indicated times, an aliquot was removed, serum proteins were precipitated, and the resultant supernatant was analyzed by reverse phase HPLC monitoring the absorbance at 650 nm. Chromatograms for each time point are shown. Intact peptide has a retention time at 11.864. […] Peaks were integrated to determine the percentage of intact peptide as well as the amount of observed degradation product. At 24 h, >75% of the MGS2_V4-2 is still intact. Electrospray mass spectrometry was performed on the peptide product arising at the 10.005 min retention time. The mass of this new species corresponds to the loss of the 3 amino acids on both branches of MGS2_V4-2.
The concentration of a solution of peptide conjugated with dye (Alexa Fluor 647) was determine by absorbance at 651 nm and ˜14 nmol of peptide was lyophilized. The lyophilized peptide powder was dissolved in 400 μL of human serum (Innovative Research, H6430) to achieve a 35 μM solution. The sample was incubated at 37° C. and shaken. For each time point (0, 1, 2, 4, 20 and 24 hours), a 50 μL aliquot was removed from the reaction and 100 μL of absolute ethanol was added to precipitate serum proteins. Samples were incubated on ice for 15 mins before being centrifuged at 12,000 rpm for 5 mins. […] Finally, 100 μL of each sample were analyzed by analysis RP-HPLC.

Sequence of Recombinant human transferrin receptor (P02786 whole entry): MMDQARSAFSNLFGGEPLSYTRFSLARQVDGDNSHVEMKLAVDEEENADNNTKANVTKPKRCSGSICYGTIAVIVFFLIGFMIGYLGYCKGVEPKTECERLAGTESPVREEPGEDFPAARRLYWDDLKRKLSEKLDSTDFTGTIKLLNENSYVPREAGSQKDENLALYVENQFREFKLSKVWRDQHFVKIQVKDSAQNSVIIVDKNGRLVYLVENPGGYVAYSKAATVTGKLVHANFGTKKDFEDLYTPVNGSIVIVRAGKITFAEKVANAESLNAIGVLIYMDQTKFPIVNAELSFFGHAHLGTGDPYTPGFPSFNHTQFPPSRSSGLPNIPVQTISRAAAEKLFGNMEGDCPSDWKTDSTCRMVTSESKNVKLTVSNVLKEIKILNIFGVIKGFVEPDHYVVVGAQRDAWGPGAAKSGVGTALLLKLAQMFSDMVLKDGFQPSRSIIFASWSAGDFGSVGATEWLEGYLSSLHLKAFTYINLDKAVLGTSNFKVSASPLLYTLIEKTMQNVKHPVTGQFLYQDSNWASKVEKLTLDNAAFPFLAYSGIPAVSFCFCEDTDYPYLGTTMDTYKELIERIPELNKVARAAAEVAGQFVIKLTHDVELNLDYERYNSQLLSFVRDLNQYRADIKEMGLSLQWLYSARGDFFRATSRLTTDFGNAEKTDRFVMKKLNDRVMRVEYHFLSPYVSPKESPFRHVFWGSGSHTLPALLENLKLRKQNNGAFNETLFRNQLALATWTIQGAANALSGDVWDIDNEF

Take `C[C@@H]1C[C@@H]([C@H](O)CC2CC(=O)NC(=O)C2)C(=O)[C@@H](C)C1` [Cycloheximide]: the “Effect on MGS_NOE3_V2-4 uptake” value in the data set with HT-22 cells is on record as “no impact on MGS_NOE3_V2-4 uptake”.

As for `CCN(CC)CCCC(C)Nc1ccnc2cc(Cl)ccc12` (stereo not shown) [chloroquine], the “Effect on MGS_NOE3_V2-4 uptake” value in the data set on HT-22 cells is “greatly reduces uptake”.

Turning to “Ac-GFHNVYPYTWGGFSDIDLMADEI [MGS_NOE3_V2]”, in data set [1], the “Uptake into HT22 cells versus concentration (in words)” value is given as “no uptake was observed on HT22 cells”.

In the case of Ac-YAAWPASGAWT, in data set [2], the fragment found entry is “loss of the 3 amino acids on both branches of MGS2_V4-2, 1 h”.

With “MGS_NOE3_V1-4: tetrameric version of GFHNVYPYTWGGFSDIDLMADEI (SEQ ID NO:1) (also: tetrameric construct on a core linker)”, the “Specificity for neurons compared to microglia” value in data set [3] is listed as 3 fold.

Turning to “MGS_NOE3_V2-2 (Ac-GFHNVYPYTWGGFSDIDLMADEI; also: dimer)”, in data set [1], the “Uptake into HT22 cells versus concentration (in words)” value was “no uptake was observed on HT22 cells”.

Turning to “MGS_NOE3_V2-4: tetrameric version of Ac-GFHNVYPYTWGGFSDIDLMADEI (SEQ ID NO:5) (also: tetrameric construct)”, the “Specificity for neurons compared to microglia” value in data set [3] amounted to 3 fold. Further, the “Uptake into HT22 cells over time (in words)” value in data set [1] (200 nM, 37° C.) is recorded as “increases over time”. Also, the “Uptake into HT22 cells versus concentration (in words)” value in [1] was “increases with increasing concentration”. Besides, the Intracellular concentration reached result in data set [1] (uptake to at least 24 H) was “≈ 1 μM”. The “Association with brain cells after intrathecal injection” value in the data set on brain cells is listed as “associated with cells in the CNS after intrathecal injection”. Also, the “Internalization into HT22 cells by confocal live cell imaging” value in the data set on HT22 cells was “internalized into neuronal cells”.

Regarding “MTS3_V1-2 (Ac-SKETYSMNAQRQHERS; also: dimer)”, in [4] (1 h at 37° C., quantitative flow cytometry), the “Cellular uptake in HMC3 cells (in words)” value is “no significant cellular uptake at any of the concentrations tested”. In addition, the “Binding to transferrin receptor in ELISA (absorbance at 450 nm)” value in data set [5] was “no binding”.

“MTS3_V2-2 (Ac-SKETYSMNAQRQHERS; also: dimer, C16 fatty acid)”: in data set [6], the “Transport into the brain parenchyma, fold higher than nonmodified MTS3_V1-2” value is on record as 10-12 fold and the “Transport into the brain parenchyma, fold higher than scrambled control scMTS3_V2-2” value is recorded as 17-31 fold. Besides, the “Brain uptake by fluorescent imaging of 1 mm coronal slices” value in data set [7] is “increased brain uptake compared to MTS3_V1-2 at all time points”.

With “dimer version of MTS2_V1, Ac-FPSWTSKNQQWTNQRQ (also: dimer) [MTS2_V1-2]”, the “Binding to transferrin receptor in ELISA (absorbance at 450 nm)” value in data set [5] is “binds to human transferrin in a concentration dependent manner which saturates at higher concentrations”.

In general, EC50 refers to the concentration giving half of the maximal effect. Turning to “dimeric form of MGS2_V4, Ac-YAAWPASGAWT (SEQ ID NO:8) [MGS2_V4-2]”, in [4] (25 nM, 1 hour at 37° C., versus neuronal cells, Schwann cell, astrocytes), the “Uptake in HMC3 cells versus other CNS cell lines (specificity)” value is on record as “significantly higher in HMC3 cells than other cells of the central nervous system”. Besides, the “Molecules internalized (average)” value in [4] (HMC3 cells of resting or activated phenotype, 1 hour) is listed as ~60,000 molecules. The concentration for a half-maximal effect (EC50) in data set [4] (HMC3 cells, 1 h at 37° C., read-out: EC50 (half maximal uptake)) stood at 7.3 nM. Besides, in [8], the “Intact peptide in human serum” value is reported as above 75%.
